# Where two headings read alike, the source gives them in different places.
# Key:
# [1] = system: Carbapenem-resistant Acinetobacter baumannii (CRAB); assay: Antibacterial MIC assay (ID-CAMHB), carbapenem-resistant Acinetobacter baumannii; assay type: cell-based
# Description: (§1) 1. The test compounds were dissolved in sterile normal saline, vortexed for uniformly mixing, and diluted in a 2-fold dilution with the sterile normal saline (11 concentration points in total). The test concentration range was 32-0.031 μg/mL, and two duplicate wells were set for each concentration. Additional wells without drug dosing were set as growth controls.
# (§2) 2. 4 μL of the diluent was added to 196 μL of the bacterial suspension in a 96-well plate (the bacterial count in the bacterial suspension was 2-8×10^5 colony forming units/mL).
# (§3) The minimum inhibitory concentration (MIC) assay was performed with reference to the Clinical and Laboratory Standards Institute (CLSI) guidelines.
# [2] = system: Carbapenem-resistant Enterobacteriaceae (CRE, Klebsiella pneumoniae); assay: Antibacterial MIC assay (ID-CAMHB), carbapenem-resistant Enterobacteriaceae; assay type: cell-based
# Description: as §1, §2, §3
# [3] = Pharmacokinetic study in cynomolgus monkeys; assay type: in vivo; conditions: cynomolgus monkey, 10 mg/kg single intravenous infusion, plasma, individual animals; for Vd / AUC(0-inf) / AUC(0-t) / clearance / half-life / Cmax / MRT / AUC last / AUCinf / CL / t1/2: 10 mg/kg
# Description: An appropriate amount of a test compound was weighed precisely and added to a container, and 0.9% sodium chloride injection and 0.2 M NaOH solution were added thereto in an ice bath until the test compound was completely dissolved, so that a sample solution at a concentration of 2 mg/mL was obtained followed by storage at 2-8° C. for later use.
# • Species and strain: cynomolgus monkey • Animal grade: general grade • Animal source: Guangxi Xiongsen Primate Experimental Animal Breeding Development Co., Ltd. • Number of the using of laboratory animal: SYXK (Su) 2019-0012
# 6 cynomolgus monkeys (half male and half female) were selected and randomly divided into 3 groups with 1 animal/sex in each group. The cynomolgus monkeys were administered with the test sample at a dose of 10 mg/kg by the single intravenous infusion. Blood samples were collected from each group of animals at the following time points: before administration, and 5 min, 15 min, 0.5 h, 1 h, 2 h, 4 h, 6 h, and 8 h after administration. In the test, the concentration of each test compound in the plasma of the cynomolgus monkey was detected by the LC-MS/MS method, and the lower limits of quantification of the analysis methods for the plasma samples were all 1 μg/mL. The plasma concentration data were analyzed by the non-compartmental analysis (NCA) of the analysis software for pharmacokinetic data, WinNonlin, pharmacokinetic parameters were calculated, and pharmacokinetic characteristics of the test compounds in cynomolgus monkeys after administration were investigated, with the results shown in the following table.
# [4] = Pharmacokinetic study in ICR mice; assay type: in vivo; conditions: plasma; for AUC(0-inf) / AUC(0-t) / Cmax / Tmax / half-life: both sexes, mouse, sc
# Description: The formulation for administration was prepared on ice. A proper amount of the test compound was precisely weighed out, and a 90% volume of normal saline was slowly added. The mixture was ultrasonically stirred in an ice-water bath until no large pieces existed. After the mixture was well mixed, a 1 M NaOH solution was added in small portions using a pipette.
# • Species and strain: ICR mice • Animal grade: SPF • Animal source: Medicilon: 999M-018
# Administration by subcutaneous injection: 3 mice/sex/time point; blood samples were collected at 9 time points: 0.083 h, 0.25 h, 0.5 h, 1 h, 2 h, 4 h, 6 h, 8 h and 24 h after administration. The collected blood samples were placed in EDTA-K2 anticoagulation blood collection tubes. The collected whole blood was placed on ice and centrifuged at 6800 g at 2-8° C. for 6 min to separate plasma within 1 h. After the centrifugation, the plasma was transferred to a centrifuge tube to which a plasma stabilizer had been added in advance (plasma:concentrated phosphoric acid=100:0.2; for example, 1 μL of 10% concentrated phosphoric acid was added to 50 μL of plasma). All the animals were subjected to careful clinical observation before administration and at each of the blood collection time points after administration, and the adverse reaction symptoms in the animals were recorded.
# [5] = system: Carbapenem-resistant Pseudomonas aeruginosa (CRPA); assay: Antibacterial MIC assay (ID-CAMHB), carbapenem-resistant Pseudomonas aeruginosa; assay type: cell-based
# Description: as §1, §2, §3
# [6] = system: Control strain (Escherichia coli) ATCC 25922; assay: Antibacterial MIC assay (ID-CAMHB), control strain Escherichia coli; assay type: cell-based
# Description: as §1, §2, §3
# [7] = system: Control strain (Pseudomonas aeruginosa) ATCC 27853; assay: Antibacterial MIC assay (ID-CAMHB), control strain Pseudomonas aeruginosa; assay type: cell-based
# Description: as §1, §2, §3
# [8] = strain FDA-CDC AR-BANK#0063, AMR gene OXA-23, OXA-65, OXA-24, sul2, read-out: MIC
# [9] = strain FDA-CDC AR-BANK#0453, AMR gene KPC-3, OmpK35, oqxA, oqxB, SHV-11, TEM-1B
# [10] = 100 mg/kg subcutaneous injection
# [11] = strain FDA-CDC AR-BANK#0036, AMR gene strB, OXA-65, OXA-24, strA, sul2, read-out: MIC
# [12] = strain FDA-CDC AR-BANK#0052, AMR gene OXA-58, OXA-100, sul2
# [13] = strain FDA-CDC AR-BANK#0070, AMR gene OXA-58, OXA-100, sul2
# [14] = strain FDA-CDC AR-BANK#0101, AMR gene strB, OXA-65, OXA-24, strA, sul2, read-out: MIC
# [15] = strain FDA-CDC AR-BANK#0361, AMR gene TEM-1, SHV-12, KPC-2
# [16] = strain FDA-CDC AR-BANK#0362, AMR gene TEM-1, SHV-11, KPC-2
# [17] = strain FDA-CDC AR-BANK#0363, AMR gene TEM-1, SHV-12, KPC-2
# [18] = strain FDA-CDC AR-BANK#0438, AMR gene aph(3′)-Ia, dfrA12, KPC-3, OmpK35, oqxA, oqxB, SHV-11
# [19] = strain FDA-CDC AR-BANK#0439, AMR gene aac(6′)-Il, aadA1b, BCR1, IMP-18, OXA-50
# [20] = strain FDA-CDC AR-BANK#0441, AMR gene KPC-2, read-out: MIC
# [21] = strain FDA-CDC AR-BANK#0444, AMR gene aac(6′)-Il, dfrB5, OXA-4, tet(G), VIM-2, read-out: MIC
# [22] = strain FDA-CDC AR-BANK#0457, AMR gene aadA6, VIM-2
# [23] = ATCC25922, ID-CAMHB, control strain ATCC 25922, read-out: MIC
# [24] = both sexes, cynomolgus, iv, read-out: Cmax
# [25] = both sexes, cynomolgus, iv, read-out: MRT
# [26] = both sexes, cynomolgus, iv, read-out: Vd
# [27] = 10 mg/kg subcutaneous injection
compound,measurement,setting,value
"CC(C)(O/N=C(\C(=O)N[C@@H]1C(=O)N2C(C(=O)[O-])=C(C[N+]3(CCNC(=O)c4ccc(O)c(O)c4Cl)CCCC3)CS[C@H]12)c1csc(N)n1)C(=O)O [Cefiderocol, reference compound]",MIC,[1]; [8],4 µg/mL
same,MIC,[2]; [9],1 µg/mL
same,Vd,[3],0.37963 L/kg
same,AUMC0-inf,[4]; [10],150.7 h · h · ug · mL^−1
same,AUMC0-t,[4]; [10],150.3 h · h · ug · mL^−1
same,Kel,[4]; [10],1.45 h⁻¹
same,MRTPO,[4]; [10],34.6 min
same,AUC(0-inf),[4]; [10],261 µg·h/mL
same,AUC(0-t),[4]; [10],261 µg·h/mL
same,Cmax,[4]; [10],363 µg/mL
same,Tmax,[4]; [10],15 min
same,half-life,[4]; [10],28.6 min
CC(C)(O/N=C(\C(=O)N[C@@H]1C(=O)N2C(C(=O)[O-])=C(C[N+]3(CCN(CCCNC(=O)c4ccc(O)c(O)c4Cl)C(=O)c4ccc(O)c(O)c4Cl)CCCC3)CS[C@H]12)c1csc(N)n1)C(=O)O [Compound 1],MIC,[1]; [11],0.25 µg/mL
same,MIC,[1]; [12],0.125 µg/mL
same,MIC,[1]; [8],32 µg/mL
same,MIC,[1]; [13],0.125 µg/mL
same,MIC,[1]; [14],1 µg/mL
same,MIC,[2]; [15],0.5 µg/mL
same,MIC,[2]; [16],0.25 µg/mL
same,MIC,[2]; [17],0.125 µg/mL
same,MIC,[2]; [18],0.5 µg/mL
same,MIC,[2]; [9],1 µg/mL
same,MIC,[5]; [19],0.125 µg/mL
same,MIC,[5]; [20],2 µg/mL
same,MIC,[5]; [21],2 µg/mL
same,MIC,[5]; [22],0.125 µg/mL
same,MIC,[6]; [23],0.0625 µg/mL
same,MIC,[7]; ATCC27853,0.125 µg/mL
same,AUC(0-inf),"[3]; both sexes, cynomolgus, iv",32.9 µg·h/mL
same,AUC(0-t),"[3]; both sexes, cynomolgus, iv",29.3 µg·h/mL
same,clearance,"[3]; both sexes, cynomolgus, iv",5.06 mL/min/kg
same,half-life,"[3]; both sexes, cynomolgus, iv",37.2 min
same,Cmax,[3]; [24],35.5 µg/mL
same,MRT,[3]; [25],38.4 min
same,Vd,[3]; [26],0.27 L/kg
same,Tmax,[3]; both sexes,4.8 min
same,AUC last,[3],23.44 µg·h/mL
same,AUCinf,[3],25.64 µg·h/mL
same,CL,[3],6.5002 mL/min/kg
same,Cmax,[3],30.64 µg/mL
same,MRT,[3],37.2 min
same,Vd,[3],0.31334 L/kg
same,t1/2,[3],33.6 min
C[C@H](CN(CCCNC(=O)c1ccc(O)c(O)c1Cl)C(=O)c1ccc(O)c(O)c1Cl)[N+]1(CC2=C(C(=O)[O-])N3C(=O)[C@@H](NC(=O)/C(=N\OC(C)(C)C(=O)O)c4csc(N)n4)[C@H]3SC2)CCCC1 [Compound 2],MIC,"[1]; strain FDA-CDC AR-BANK#0036, AMR gene strB, OXA-65, OXA-24, strA, sul2",0.5 µg/mL
same,MIC,[1]; [12],0.125 µg/mL
same,MIC,"[1]; strain FDA-CDC AR-BANK#0063, AMR gene OXA-23, OXA-65, OXA-24, sul2",4 µg/mL
same,MIC,[1]; [13],0.25 µg/mL
same,MIC,"[1]; strain FDA-CDC AR-BANK#0101, AMR gene strB, OXA-65, OXA-24, strA, sul2",1 µg/mL
same,MIC,[2]; [15],1 µg/mL
same,MIC,[2]; [16],0.25 µg/mL
same,MIC,[2]; [17],0.5 µg/mL
same,MIC,[2]; [18],1 µg/mL
same,MIC,[2]; [9],1 µg/mL
same,MIC,[5]; [19],0.5 µg/mL
same,MIC,"[5]; strain FDA-CDC AR-BANK#0441, AMR gene KPC-2",8 µg/mL
same,MIC,"[5]; strain FDA-CDC AR-BANK#0444, AMR gene aac(6′)-Il, dfrB5, OXA-4, tet(G), VIM-2",4 µg/mL
same,MIC,[5]; [22],0.25 µg/mL
same,MIC,[6]; ATCC25922,0.125 µg/mL
same,MIC,[7]; ATCC27853,0.0625 µg/mL
CC(C)(O/N=C(\C(=O)N[C@@H]1C(=O)N2C(C(=O)[O-])=C(C[N+]3(CCCN(CCCNC(=O)c4ccc(O)c(O)c4Cl)C(=O)c4ccc(O)c(O)c4Cl)CCCC3)CS[C@H]12)c1csc(N)n1)C(=O)O [Compound 3],MIC,[1]; [11],0.25 µg/mL
same,MIC,[1]; [12],0.125 µg/mL
same,MIC,[1]; [8],> 32 µg/mL
same,MIC,[1]; [13],0.125 µg/mL
same,MIC,[1]; [14],0.5 µg/mL
same,MIC,[2]; [15],0.5 µg/mL
same,MIC,[2]; [16],0.125 µg/mL
same,MIC,[2]; [17],0.125 µg/mL
same,MIC,[2]; [18],0.25 µg/mL
same,MIC,[2]; [9],0.5 µg/mL
same,MIC,[5]; [19],0.125 µg/mL
same,MIC,[5]; [20],2 µg/mL
same,MIC,[5]; [21],2 µg/mL
same,MIC,"[5]; strain FDA-CDC AR-BANK#0457, AMR gene aadA6, VIM-2, read-out: MIC",0.25 µg/mL
same,MIC,[6]; [23],0.0625 µg/mL
same,MIC,"[7]; ATCC27853, ID-CAMHB, control strain ATCC 27853, read-out: MIC",0.25 µg/mL
same,AUC(0-inf),"[3]; both sexes, cynomolgus, iv",166 µg·h/mL
same,AUC(0-t),"[3]; both sexes, cynomolgus, iv",149 µg·h/mL
same,clearance,"[3]; both sexes, cynomolgus, iv",1 mL/min/kg
same,half-life,"[3]; both sexes, cynomolgus, iv",154 min
same,Cmax,[3]; [24],55.2 µg/mL
same,MRT,[3]; [25],150 min
same,Vd,[3]; [26],0.223 L/kg
same,Tmax,[3]; both sexes,4.8 min
same,AUC last,[3],140.08 µg·h/mL
same,AUCinf,[3],153.20 µg·h/mL
same,CL,[3],1.088 mL/min/kg
same,Cmax,[3],48.60 µg/mL
same,MRT,[3],149 min
same,Vd,[3],0.21311 L/kg
same,t1/2,[3],136 min
same,AUMC0-inf,[4]; [27],86.9 h · h · ug · mL^−1
same,AUMC0-t,[4]; [27],80.3 h · h · ug · mL^−1
same,Kel,[4]; [27],1.04 h⁻¹
same,MRTPO,[4]; [27],47.4 min
same,AUMC0-inf,[4]; [10],880.4 h · h · ug · mL^−1
same,AUMC0-t,[4]; [10],871.4 h · h · ug · mL^−1
same,Kel,[4]; [10],1.64 h⁻¹
same,MRTPO,[4]; [10],47.8 min
same,AUC(0-inf),[4]; [27],110 µg·h/mL
same,AUC(0-t),[4]; [27],109 µg·h/mL
same,Cmax,[4]; [27],114 µg/mL
same,Tmax,[4]; [27],15 min
same,half-life,[4]; [27],39.9 min
same,AUC(0-inf),[4]; [10],1100 µg·h/mL
same,AUC(0-t),[4]; [10],1100 µg·h/mL
same,Cmax,[4]; [10],936 µg/mL
same,Tmax,[4]; [10],30 min
same,half-life,[4]; [10],25.3 min

# From US20240132518A1, “CEPHALOSPORIN ANTIBACTERIAL COMPOUND AND PREPARATION METHOD THEREFOR” (priority 2021, published 2024)
